Measurements reported in ChEMBL document CHEMBL1132911, “Cytotoxic halogenoacrylic derivatives of distamycin A” (Bioorg Med Chem Lett, 2000).

Assays:
L1210 [1] = test: In vitro cytotoxicity was measured after 4 hr of exposure against L1210 murine leukemia cells; format: functional, Mus musculus
L1210 [2] = test: In vitro cytotoxicity was measured after 48 hr of exposure against L1210 murine leukemia cells; format: functional, cell-based; conditions: Mus musculus, L1210, 48 h
Mus musculus [3] = test: In vivo antileukemic activity against L1210 murine leukemia cell after intravenous administration in mice expressed as optimal (non toxic) dose; format: functional
Mus musculus [4] = test: In vivo antileukemic activity against L1210 murine leukemia in mice after iv administration of compound expressed as T/C ie median survival time of treated versus untreated mice (10); format: functional
Mus musculus [5] = test: In vivo antileukemic activity against L1210 murine leukemia after intravenous administration in mice expressed as optimal (non toxic) dose; format: functional

Row | Structure (SMILES) | IPol (L1210 [1]) | IC50 (L1210 [2]) | OD (Mus musculus [3]) | T/C (Mus musculus [4]) | other results
1 | Cl.Cn1cc(NC(=O)c2cc(NC(=O)c3cc(NC(=O)/C=C\Cl)cn3C)cn2C)cc1C(=O)NCCC(=N)N | >50 µM | – | – | – | –
2 | C=CC(=O)Nc1cc(C(=O)Nc2cc(C(=O)Nc3cc(C(=O)NCCC(=N)N)n(C)c3)n(C)c2)n(C)c1.Cl | >50 µM | – | – | – | –
3 | C=C(F)C(=O)Nc1cc(C(=O)Nc2cc(C(=O)Nc3cc(C(=O)Nc4cc(C(=O)NCCC(=N)N)n(C)c4)n(C)c3)n(C)c2)n(C)c1 | – | > 700 nM | – | – | –
4 | C=C(Br)C(=O)Nc1cc(C(=O)Nc2cc(C(=O)NCCC(=N)N)n(C)c2)n(C)c1 | – | > 1300 nM | – | – | –
5 | C=C(Cl)C(=O)Nc1cc(C(=O)Nc2cc(C(=O)Nc3cc(C(=O)NCCC(=N)N)n(C)c3)n(C)c2)n(C)c1.Cl | 1.47 µM | – | 12.5 mg/kg | 117% | –
6 | C=C(Br)CNc1cc(C(=O)Nc2cc(C(=O)Nc3cc(C(=O)NCCC(=N)N)n(C)c3)n(C)c2)n(C)c1 | – | > 1600 nM | – | – | –
7 | Cl.Cn1cc(NC(=O)c2cc(NC(=O)c3cc(NC(=O)/C=C/Cl)cn3C)cn2C)cc1C(=O)NCCC(=N)N | >100 µM | – | – | – | –
8 | C=C(Br)C(=O)Nc1cc(C(=O)Nc2cc(C(=O)Nc3cc(C(=O)NCCC(=N)N)n(C)c3)n(C)c2)n(C)c1.Cl | 0.1035 µM | – | – | 100% | OD (Mus musculus [5]): 12.5 mg/kg
9 | C=C(Br)C(=O)Nc1cc(C(=O)Nc2cc(C(=O)Nc3cc(C(=O)Nc4cc(C(=O)Nc5cc(C(=O)NCCC(=N)N)n(C)c5)n(C)c4)n(C)c3)n(C)c2)n(C)c1.Cl | – | 23 nM | 0.78 mg/kg | 167% | –
10 | C=C(Br)C(=O)Nc1cc(C(=O)NCCC(=N)N)n(C)c1 | – | > 13000 nM | – | – | –
11 | C=C(Br)C(=O)Nc1cc(C(=O)Nc2cc(C(=O)Nc3cc(C(=O)Nc4cc(C(=O)NCCC(=N)N)n(C)c4)n(C)c3)n(C)c2)n(C)c1.Cl | – | – | 1.56 mg/kg | 200% | –
12 | C=C(Cl)C(=O)Nc1cc(C(=O)Nc2cc(C(=O)Nc3cc(C(=O)Nc4cc(C(=O)NCCC(=N)N)n(C)c4)n(C)c3)n(C)c2)n(C)c1.Cl | – | 3.8 nM | 1.56 mg/kg | 133% | –
13 | C=C(F)C(=O)Nc1cc(C(=O)Nc2cc(C(=O)Nc3cc(C(=O)NCCC(=N)N)n(C)c3)n(C)c2)n(C)c1 | – | > 800 nM | – | – | –
